In US11034725B2, “Compositions and methods for treating cardiovascular disease” (Genentech, Inc., priority 2016, dated 2021):
Like-named read-outs stand apart in the source and are kept apart here. Bridge positions count the residues as written; N and C are the ends. Square brackets hold non-standard residues; d marks the D form. Peptide text beside a SMILES is read from it. * marks the point of attachment. Trp(6-Cl) = N[C@@H](Cc1c[nH]c2cc(Cl)ccc12)C(=O)O; Pentanoyl = CCCCC(=O)*

Experiments:
His-EGF(A)-Fc = His-EGF(A)-Fc TR-FRET counterscreen
Description: (§1) The former was based on a TF-FRET assay to measure the association of the EGF(A) domain of the LDLR to PCSK9 (“PCSK9/EGF(A) binding assay”) whilst the latter was based on a TR-FRET assay to measure binding of Ab20 to PCSK9Δhelix (“PCSK9Δhelix/Ab20 binding assay”).
(§2) The ability of compounds to inhibit binding to PCSK9 was evaluated with a panel of time-resolved fluorescence resonance energy transfer (TR-FRET) binding assays. […] The PCSK9Δhelix/Ab20 binding assay evaluated the ability of compounds to compete with Ab20 for binding to the N-terminal groove region in a His-tagged, PCSK9Δhelix construct. […] Signal generation in the PCSK9 binding assays was dependent upon the binding interaction to bring into close proximity the His-tag on the PCSK9 and the Fc-tag on the ligand. Anti-His-APC was bound to the His-tag, and anti-Fc-europium was bound to the Fc-tag. When these two antibodies were in close proximity and were irradiated with light at 340 nm, the europium was excited and emitted energy at 615 nm. This energy was taken up by the APC and was emitted as light at 665 nm. Compounds that competed with the ligand reduced the energy transfer and thus the emission at 665 nm. In the His-EGFA-Fc molecule in the counterscreen, the two tags were always in close proximity, thus any reduction in emission at 665 nm was due to interference with the detection system.
(§3) Compounds were solubilized and dilutions were prepared in DMSO. […] The plate was centrifuged to mix the well contents and allowed to incubate for 30 min. […] The TR-FRET signal was read on a ViewLux reader (PerkinElmer) with excitation at 340 nm and emission at 615 and 665 nm with a 50-μs time delay between excitation and measurement of emission. The TR-FRET ratio was calculated as the fluorescence emission at 665 nm divided by the fluorescence emission at 615 nm. The normalized TR-FRET ratios were plotted as a function of the compound concentrations, and the IC50 values were determined using a 4-parameter logistic regression.
(§4) In black 1536-well assay plates (MaKO, Aurora® Microplates, Whitefish, Mont.), 40 nL of peptide in DMSO were preincubated with 2 μL His-tagged PCSK9 plus anti-His-allophycocyanin in assay buffer (50 mM Tris-HCl, pH 7.5, 150 mM NaCl, 2 mM CaCl2, 0.01% Tween®-20, 0.1% bovine gamma globulins, and protease inhibitor cocktail) for 30 min. Then 2 μL of Fc-tagged ligand and anti-Fc-europium in assay buffer were added and allowed to incubate for 2 h.

PCSK9Δhelix = molecular target: T1, PCSK9Δhelix (Homo sapiens, UniProt Q8NBP7); test: PCSK9Δhelix/Ab20 TR-FRET binding assay; conditions: TR-FRET, read-out: PCSK9Δhelix/Ab20 IC50
T1 construct: Human PCSK9 construct M1-Q692 with an engineered TEV site (residue deletion Y166, R167); made in house; host or cells: CHO
Description: as §1, §2, §3, §4

PCSK9 = PCSK9 (Homo sapiens, UniProt Q8NBP7); test: PCSK9/EGF(A) TR-FRET binding assay; conditions: TR-FRET, read-out: PCSK9/EGF(A) IC50
Description: as §1, §2, §3, §4

[1] = TR-FRET counterscreen, Table 8E, additional compounds
[2] = TR-FRET counterscreen, Table 8D, * = some inhibition at highest concentrations, not sufficient to fit an IC50
[3] = Table 8D, disulfide-cyclized extension peptides

Sequence of PCSK9 (Q8NBP7 153-692): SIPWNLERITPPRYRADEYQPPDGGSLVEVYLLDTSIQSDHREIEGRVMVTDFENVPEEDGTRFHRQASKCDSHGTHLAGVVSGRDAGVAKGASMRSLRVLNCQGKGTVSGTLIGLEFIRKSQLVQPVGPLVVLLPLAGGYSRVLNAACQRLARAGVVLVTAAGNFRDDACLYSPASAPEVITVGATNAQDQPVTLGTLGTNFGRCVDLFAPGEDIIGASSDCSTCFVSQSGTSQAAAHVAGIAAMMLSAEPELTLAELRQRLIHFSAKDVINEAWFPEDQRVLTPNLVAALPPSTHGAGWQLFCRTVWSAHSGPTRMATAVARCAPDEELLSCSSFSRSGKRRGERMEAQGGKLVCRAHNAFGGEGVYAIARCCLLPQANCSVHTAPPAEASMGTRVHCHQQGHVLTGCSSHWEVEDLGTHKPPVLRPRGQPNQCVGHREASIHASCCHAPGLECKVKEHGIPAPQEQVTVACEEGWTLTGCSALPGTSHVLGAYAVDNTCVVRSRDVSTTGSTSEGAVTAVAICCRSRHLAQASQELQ
Sequence of PCSK9 (Q8NBP7 31-152 partner limits assumed): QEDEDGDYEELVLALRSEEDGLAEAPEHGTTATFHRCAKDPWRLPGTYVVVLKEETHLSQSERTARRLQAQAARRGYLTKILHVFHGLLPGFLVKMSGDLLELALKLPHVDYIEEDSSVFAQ
T1 sequence (Q8NBP7 with tags, fused parts or gaps limits assumed): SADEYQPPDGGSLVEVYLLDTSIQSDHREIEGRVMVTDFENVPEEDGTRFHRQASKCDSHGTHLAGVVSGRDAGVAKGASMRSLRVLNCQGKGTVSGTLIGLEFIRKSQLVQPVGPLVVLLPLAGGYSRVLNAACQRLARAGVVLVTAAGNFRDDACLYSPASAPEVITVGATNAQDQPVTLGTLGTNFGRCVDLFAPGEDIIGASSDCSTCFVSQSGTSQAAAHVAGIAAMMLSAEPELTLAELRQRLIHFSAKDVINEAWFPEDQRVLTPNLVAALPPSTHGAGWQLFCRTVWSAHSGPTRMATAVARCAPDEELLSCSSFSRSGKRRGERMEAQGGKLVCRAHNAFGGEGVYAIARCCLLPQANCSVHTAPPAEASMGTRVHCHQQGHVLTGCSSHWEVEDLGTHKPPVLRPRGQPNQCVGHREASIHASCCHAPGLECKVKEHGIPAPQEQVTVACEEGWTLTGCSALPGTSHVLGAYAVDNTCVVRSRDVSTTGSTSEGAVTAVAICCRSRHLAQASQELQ
T1 sequence (Q8NBP7 31-152 partner limits assumed): as the sequence (Q8NBP7 31-152 partner limits assumed) above

CCCCC(=O)N[C@@H](Cc1c[nH]c2ccccc12)C(=O)N[C@@H](CC(N)=O)C(=O)N[C@@H](CC(C)C)C(=O)N[C@H](C(=O)N[C@@H](CCCNC(=N)N)C(=O)N[C@H](C(=O)NCC(=O)N[C@@H](CC(C)C)C(=O)N[C@@H](CC(C)C)C(=O)N[C@@H](CCCNC(=N)N)C(=O)O)[C@@H](C)CC)C(C)C [Compound 152] (Pentanoyl-WNLVRIGLLR-OH)
IC50 (His-EGF(A)-Fc; [1]): ≥ 50 µM | IC50 (PCSK9Δhelix; Table 8E, additional compounds): 14 µM | IC50 (PCSK9; Table 8E, additional compounds): 43 µM

CCCCC(=O)N[C@@H](Cc1c[nH]c2ccccc12)C(=O)N[C@@H](CC(N)=O)C(=O)N[C@@H](CC(C)C)C(=O)N[C@H](C(=O)N[C@@H](CCCNC(=N)N)C(=O)N[C@H](C(=O)NCC(=O)N[C@@H](CC(C)C)C(=O)N[C@@H](CC(C)C)C(=O)N[C@@H](CCCNC(=N)N)C(N)=O)[C@@H](C)CC)C(C)C [Compound 111] (Pentanoyl-WNLVRIGLLR-NH2)
IC50 (His-EGF(A)-Fc; counterscreen, Example 7): > 50 µM | IC50 (PCSK9Δhelix; Example 7): 4.9 µM | IC50 (PCSK9; Example 7): > 50 µM

CCCCC(=O)N[C@@H](Cc1c[nH]c2cc(Cl)ccc12)C(=O)N[C@@H](CC(N)=O)C(=O)N[C@@H](CC(C)C)C(=O)N[C@H](C(=O)N[C@@H](CCCNC(=N)N)C(=O)N[C@H](C(=O)NCC(=O)N[C@@H](CC(C)C)C(=O)N[C@H](C(=O)N[C@@H](CCCNC(=N)N)C(N)=O)[C@@H](C)O)[C@@H](C)CC)C(C)C [Compound 186] (Pentanoyl-[Trp(6-Cl)]NLVRIGLTR-NH2)
IC50 (His-EGF(A)-Fc; [1]): 46 µM | IC50 (PCSK9Δhelix; Table 8E, additional compounds): 11 µM | IC50 (PCSK9; Table 8E, additional compounds): 31 µM

Ac-DLMPWNLVRIGALR-NH2 [Compound 56]
IC50 (His-EGF(A)-Fc; counterscreen, Example 7): > 50 µM | IC50 (PCSK9Δhelix; Example 7): 17.1 µM | IC50 (PCSK9; Example 7): > 50 µM

CC[C@H](C)[C@@H]1NC(=O)[C@H](CCCNC(=N)N)NC(=O)[C@H](CCC(N)=O)NC(=O)[C@H](CC(C)C)NC(=O)[C@H](C)NC(=O)[C@H](Cc2c[nH]c3ccccc23)NC(=O)[C@@H]2CCCN2C(=O)[C@H](CC(C)C)NC(=O)[C@H](CCCNC(=N)N)NC(=O)[C@@H](NC(C)=O)CSSC[C@@H](C(N)=O)NC(=O)[C@@H]2CCCN2C(=O)[C@H](CC(C)C)NC(=O)CNC1=O [Compound 75] (Ac-CRLPWALQRIGLPC-NH2; disulfide 1-14)
IC50 (His-EGF(A)-Fc; [2]): > 50 µM | IC50 (PCSK9Δhelix; [3]): 49.5 µM | IC50 (PCSK9; [3]): > 50 µM

Ac-DAMPWNLVRIGLLR-NH2 [Compound 44]
IC50 (His-EGF(A)-Fc; counterscreen, Example 7): > 50 µM | IC50 (PCSK9Δhelix; Example 7): 6.9 µM | IC50 (PCSK9; Example 7): > 50 µM

CCCCC(=O)N[C@@H](Cc1c[nH]c2ccccc12)C(=O)N[C@@H](CC(N)=O)C(=O)N[C@@H](CC(C)C)C(=O)N[C@H](C(=O)N[C@@H](CCCNC(=N)N)C(=O)N[C@H](C(=O)NCC(=O)N[C@H](C(=O)N[C@H](C(=O)N[C@@H](CCCNC(=N)N)C(N)=O)[C@@H](C)O)[C@@H](C)O)[C@@H](C)CC)C(C)C [Compound 113] (Pentanoyl-WNLVRIGTTR-NH2)
IC50 (His-EGF(A)-Fc; counterscreen, Example 7): > 50 µM | IC50 (PCSK9Δhelix; Example 7): > 50 µM | IC50 (PCSK9; Example 7): > 50 µM

Ac-TVFTSWEEYLDWVGSGGKLWNLGRV-NH2 [Compound 9]
IC50 (His-EGF(A)-Fc; counterscreen, Example 7): > 50 µM | IC50 (PCSK9Δhelix; Example 7): 0.065 µM | IC50 (PCSK9; Example 7): 0.39 µM

CC[C@H](C)[C@@H]1NC(=O)[C@H](CCCNC(=N)N)NC(=O)[C@H](CCCCN)NC(=O)[C@H](CC(C)C)NC(=O)[C@H](CC(N)=O)NC(=O)[C@H](Cc2c[nH]c3ccccc23)NC(=O)[C@H](CC(C)C)NC(=O)[C@@H](NC(=O)[C@H](CC(=O)O)NC(C)=O)CSSC[C@@H](C(=O)N[C@@H](CCC(=O)O)C(=O)N[C@@H](Cc2ccc(O)cc2)C(N)=O)NC(=O)[C@H](CCC(N)=O)NC(=O)[C@H](CO)NC(=O)CNC1=O [Compound 64] (Ac-DCLWNLKRIGSQCEY-NH2; disulfide 2-13)
IC50 (His-EGF(A)-Fc; [2]): > 50 µM | IC50 (PCSK9Δhelix; [3]): > 50 µM | IC50 (PCSK9; [3]): > 50 µM

Ac-DLMPWNLVRAGLLR-NH2 [Compound 58]
IC50 (His-EGF(A)-Fc; counterscreen, Example 7): > 50 µM | IC50 (PCSK9Δhelix; Example 7): > 49.5 µM | IC50 (PCSK9; Example 7): > 50 µM
